Data published in US10350199B2, “3-(1h-pyrrolo[2,3-b]pyridin-2-yl)-1h-indazoles and therapeutic uses thereof” (Samumed, LLC, priority 2015, dated 2019).

Columns and labels:
Assay type in all cases: cell-based
[1] = tested on: SW480 colon cancer cells; experiment: Cell viability assay (CellTiter-Blue), SW480 cells, four days; conditions: Homo sapiens; for EC50: 96 h, SW480 cell viability, four days, CellTiter-Blue; for inhibition at 10 µM: SW480, read-out: percent inhibition at 10 μM
Protocol: Representative compounds were screened using the following assay procedure to assess the effect on cell viability as described below.
Approximately 2×10^3 SW480 colon cancer cells were seeded into each well and allowed to incubate in the presence or absence of compound for four days at 37° C./5% CO2. Eight replicates of DMSO-treated cells served as controls and cells treated with compound were performed in duplicate.
After incubation, 20 μL of CellTiter-Blue (Promega) was added to each well allowed to incubate for approximately 3 hours. This reagent was a buffered solution which contains resazurin, metabolically active cells were able to reduce rezarurin (blue) into resorufin (pink) which was highly fluorescent. This measured fluorescence was used as a readout for cell viability.

[2] = tested on: primary human fibroblasts derived from IPF patients (LL29 cells) treated with TGF-β1; experiment: Inhibition of the fibrotic process: αSMA staining in TGF-β1 treated LL29 fibroblasts; conditions: Fibroblast; for EC50: 96 h, LL29 cells, TGF-β1 20 ng/mL, 4 days, % αSMA positive cells; for inhibition at 10 µM: read-out: percent inhibition at 10 μM
Protocol: Representative compounds were screened using primary human fibroblasts (derived from IPF patients) treated with TGF-β1 to determine their ability to inhibit the fibrotic process.
LL29 cells are plated at 1,500 cells/well in 80 μL/well F12 medium supplemented with 1% Fetal Bovine Serum. […] Wells treated with TGF-β1 and containing DMSO were used as controls. […] Following incubation for 4 days, SYTOX green nucleic acid stain (Life Technologies [Thermo Fisher Scientific]) was added to the wells at a final concentration of 1 μM and incubated at room temperature for 30 min.

[3] = tested on: Wnt activity (Sp5-Luc reporter, SW480 colon carcinoma cells); experiment: Wnt activity screening assay, Sp5-Luc reporter gene in SW480 cells; conditions: Homo sapiens; for EC50: Sp5-Luc reporter, SW480 cells, overnight incubation; for inhibition at 10 µM: SW480, read-out: percent inhibition at 10 μM
From the text: The screening assay for Wnt activity is described as follows. Reporter cell lines can be generated by stably transducing cancer cell lines (e.g., colon cancer) or primary cells (e.g., IEC-6 intestinal cells) with a lentiviral construct that includes a Wnt-responsive promoter driving expression of the firefly luciferase gene.
SW480 colon carcinoma cells were transduced with a lentiviral vector expressing luciferase with a human Sp5 promoter consisting of a sequence of eight TCF/LEF binding sites. SW480 cells stably expressing the Sp5-Luc reporter gene and a hygromycin resistance gene were selected by treatment with 150 μg/mL of hygromycin for 7 days. These stably transduced SW480 cells were expanded in cell culture and used for all further screening activities. […] For Sp5-Luc reporter gene assays, the cells were plated at 4,000 cells/well in 384-well plates with medium containing 1% fetal bovine serum and incubated overnight at 37° C. and 5% CO2. Following incubation, 20 μl of BrightGlo luminescence reagent (Promega) was added to each well of the 384-well assay plates. The plates were placed on an orbital shaker for 2 min and then luminescence was quantified using the Envision (Perkin Elmer) plate reader. Readings were normalized to DMSO only treated cells, and normalized activities were utilized for EC50 calculations using the dose-response log (inhibitor) vs. response -variable slope (four parameters) nonlinear regression feature available in GraphPad Prism 5.0 (or Dotmatics).

[4] = tested on: IL-6 (THP-1 human monocyte cell line); experiment: IL-6 inhibition in LPS-stimulated THP-1 cells (HTRF); conditions: for EC50: IL-6 inhibition, LPS-stimulated THP-1 cells, HTRF; for inhibition at 10 µM: THP-1, read-out: percentage in parentheses beside EC50 >10 (IL-6 inhibition)
Protocol: THP-1 cells were cultured in basal media with 1% FBS for 24 hours before the start of the assay. […] THP-1 cells were plated at 5000 cells/well in the 384-well plates and incubated at 37° C. for 2 h. 500 ng/mL of LPS was added after 2 hours and cells were incubated for another 22 hours at 37° C. Plates were spun in a centrifuge for 1 minute at […] and a mixture of anti-IL6 XL665, and anti-IL6 Cryptate diluted in reconstitution buffer (Cisbio Inc.) was added to each well. Following incubation for 3 hrs at room temperature, Homogeneous Time-Resolved Fluorescence (HTRF) was measured using the Envision (Perkin Elmer) at 665 nm and […]. The ratio of fluorescence at 665 nm to 620 nm was used as a readout for IL6 quantification. All samples were processed in duplicate. Readings were normalized to DMSO treated cells and normalized activities were utilized for EC50 calculations using the dose-response log (inhibitor) vs. response -variable slope (four parameters) nonlinear regression feature available in GraphPad Prism 5.0 (or Dotmatics).

`c1ccc(-c2ccc3[nH]nc(-c4cc5c(-c6cccs6)ccnc5[nH]4)c3c2)nc1` [Compound 364, 5-(Pyridin-2-yl)-3-(4-(thiophen-2-yl)-1H-pyrrolo[2,3-b]pyridin-2-yl)-1H-indazole] gave an EC50 [1] of 1.14 µM, an EC50 [2] of 2.2 µM and an EC50 [3] of 3.38 µM. It also gave an EC50 [4] of 1.57 µM.
Molecule `c1cnc2[nH]c(-c3n[nH]c4ccc(-c5ccncc5)cc34)cc2c1` [Compound 270, 5-(Pyridin-4-yl)-3-(1H-pyrrolo[2,3-b]pyridin-2-yl)-1H-indazole] has an EC50 [1] of over 10 µM, an inhibition at 10 µM [1] of 15.2% and an EC50 [2] of 6.52 µM. For the same molecule, the inhibition at 10 µM [3] was 45.7%, the EC50 [3] was over 10 µM and the EC50 [4] was over 10 µM. It also gave an inhibition at 10 µM [4] of 48.3%.
In the case of `CN1CCN(c2ccnc3[nH]c(-c4n[nH]c5ccc(-c6cncc(OCc7ccccc7)c6)cc45)cc23)CC1` [Compound 646, 5-(5-(Benzyloxy)pyridin-3-yl)-3-(4-(4-methylpiperazin-1-yl)-1H-pyrrolo[2,3-b]pyridin-2-yl)-1H-indazole], the EC50 [1] is reported as 4.82 µM, the EC50 [2] is reported as 0.316 µM and the EC50 [3] is reported as 4.88 µM. For the same molecule, the EC50 [4] was over 10 µM and the inhibition at 10 µM [4] was 37.9%.
`CC(C)CC(=O)Nc1cncc(-c2ccc3[nH]nc(-c4cc5c(-c6cccs6)ccnc5[nH]4)c3c2)c1` [Compound 338, 3-Methyl-N-(5-(3-(4-(thiophen-2-yl)-1H-pyrrolo[2,3-b]pyridin-2-yl)-1H-indazol-5-yl)pyridin-3-yl)butanamide] showed an EC50 [1] of 0.747 µM, an EC50 [2] of 0.58 µM and an EC50 [3] of 0.332 µM. For the same molecule, the EC50 [4] was 0.047 µM.
Work on `CN(C)Cc1cncc(-c2ccc3[nH]nc(-c4cc5c(-c6ccoc6)ccnc5[nH]4)c3c2)c1` [Compound 321, 1-(5-(3-(4-(Furan-3-yl)-1H-pyrrolo[2,3-b]pyridin-2-yl)-1H-indazol-5-yl)pyridin-3-yl)-N,N-dimethylmethanamine] yielded an EC50 [1] of over 10 µM, an inhibition at 10 µM [1] of 7.9% and an EC50 [2] of 1.37 µM. For the same molecule, the inhibition at 10 µM [3] was 3.7%, the EC50 [3] was over 10 µM and the EC50 [4] was over 10 µM. It also gave an inhibition at 10 µM [4] of 19%.
In the case of `CN(C)Cc1cncc(-c2ccc3[nH]nc(-c4cc5c(N6CCCCC6)ccnc5[nH]4)c3c2)c1` [Compound 181, N,N-Dimethyl-1-(5-(3-(4-(piperidin-1-yl)-1H-pyrrolo[2,3-b]pyridin-2-yl)-1H-indazol-5-yl)pyridin-3-yl)methanamine], the EC50 [1] is reported as over 10 µM, the inhibition at 10 µM [1] is reported as 17.6% and the EC50 [2] is reported as over 10 µM. The inhibition at 10 µM [2] was 9.1%, the inhibition at 10 µM [3] was 26.2% and the EC50 [3] was over 10 µM. The EC50 [4] was over 10 µM and the inhibition at 10 µM [4] was 29%.
`c1ccc(-c2ccc3[nH]nc(-c4cc5c(-c6ccoc6)ccnc5[nH]4)c3c2)nc1` [Compound 336, 3-(4-(Furan-3-yl)-1H-pyrrolo[2,3-b]pyridin-2-yl)-5-(pyridin-2-yl)-1H-indazole] was tested, and the EC50 [1] was over 10 µM, the inhibition at 10 µM [1] was 0% and the EC50 [2] was over 10 µM. The inhibition at 10 µM [2] was 0%, the inhibition at 10 µM [3] was 11% and the EC50 [3] was over 10 µM. The EC50 [4] was over 10 µM and the inhibition at 10 µM [4] was 45.1%.
In the case of `O=C(Cc1ccccc1)Nc1cncc(-c2ccc3[nH]nc(-c4cc5c(N6CCCCC6)ccnc5[nH]4)c3c2)c1` [Compound 178, 2-Phenyl-N-(5-(3-(4-(piperidin-1-yl)-1H-pyrrolo[2,3-b]pyridin-2-yl)-1H-indazol-5-yl)pyridin-3-yl)acetamide], the EC50 [1] is reported as over 10 µM, the inhibition at 10 µM [1] is reported as 18.7% and the EC50 [2] is reported as over 10 µM. It also gave an inhibition at 10 µM [2] of 0%, an inhibition at 10 µM [3] of 13.8% and an EC50 [3] of over 10 µM. It also gave an EC50 [4] of over 10 µM and an inhibition at 10 µM [4] of 36.5%.
`Fc1ccc(-c2ccnc3[nH]c(-c4n[nH]c5ccc(C6=CCNCC6)cc45)cc23)cc1` [Compound 522, 3-(4-(4-Fluorophenyl)-1H-pyrrolo[2,3-b]pyridin-2-yl)-5-(1,2,3,6-tetrahydropyridin-4-yl)-1H-indazole] showed an EC50 [1] of over 10 µM, an inhibition at 10 µM [1] of 19.2% and an EC50 [2] of 3.86 µM. It also gave an EC50 [3] of 3.25 µM, an EC50 [4] of over 10 µM and an inhibition at 10 µM [4] of 48.7%.
